Results published in patent US10391201B2, “Gene therapy” (Ospedale San Raffaele S.r.l., priority 2014, dated 2019).

Experiments:
[1] = system: CD4+ T cells; test: SINLV-GFP lentiviral transduction of activated CD4+ T cells; type: cell-based, human
Experimental: (§1) CD4^+ T cells were activated in RPMI, supplemented with 10% FBS, penicillin (100 IU/mL), streptomycin (100 μg/mL), 2% glutamine, phytohaemagglutanin (PHA) (2 μg/mL, Roche) and IL-2 (300 IU/mL, Novartis) for three days and maintained in RPMI supplemented with 10% FBS, penicillin (100 IU/mL), streptomycin (100 μg/mL), 2% glutamine and IL-2 (300 UI/mL). Monocyte-derived macrophages (MDM) were differentiated from isolated CD14^+ monocytes in DMEM supplemented with 10% FBS, penicillin (100 IU/mL), streptomycin (100 μg/mL), 2% glutamine and 5% human serum AB (Lonza) for seven days.
(§2) Human CB and BM-derived haematopoietic stem/progenitor cells (HSPC) were cultured in serum-free StemSpan medium (StemCell Technologies) supplemented with 100 ng/mL recombinant human stem cell factor (rhSCF), 20 ng/mL recombinant human thrombopoietin (rhTPO), 100 ng/mL recombinant human Flt3 ligand (rhFlt3) and 20 ng/mL recombinant human IL6 (rhIL6) (all from Peprotech) 16 to 24 hours prior to transduction. […] After transduction, cells were washed and maintained serum-free StemSpan supplemented with cytokines as above until the reading of GFP-positive (GFP+) cells by FACS. […]
(§3) GFP expression in transduced cells was measured 5-7 days post-transduction. […]

[2] = system: bone marrow (BM)-derived CD34+ cells; type: cell-based, human
Experimental: (§4) Human CB and BM-derived haematopoietic stem/progenitor cells (HSPC) were cultured in serum-free StemSpan medium (StemCell Technologies) supplemented with 100 ng/mL recombinant human stem cell factor (rhSCF), 20 ng/mL recombinant human thrombopoietin (rhTPO), 100 ng/mL recombinant human Flt3 ligand (rhFlt3) and 20 ng/mL recombinant human IL6 (rhIL6) (all from Peprotech) 16 to 24 hours prior to transduction. HSPC were then transduced at a concentration of 1×10^6 cells per mL with vesicular stomatitis virus glycoprotein (VSV-G)-pseudotyped SINLV for 20 hours at the indicated multiplicity of infection (MOI) in the same medium. After transduction, cells were washed and maintained serum-free StemSpan supplemented with cytokines as above until the reading of GFP-positive (GFP+) cells by FACS. After FACS they were maintained in Roswell Park Memorial Institute medium (RPMI, Lonza) supplemented with 10% FBS, 25 ng/mL rhSCF, 5 ng/mL rhIL6, 25 ng/mL rhFlt3 and 5 ng/mL rhTPO for another seven days before analysis of vector copy numbers. MDM were transduced 7 days after differentiation. T lymphocytes were transduced at a concentration of 10^6 cells per mL, after 3 days of stimulation. All the cells were exposed to the vector for 16-20 hours.
(§5) They were added to the transduction medium at the indicated concentration and washed out with the vector 16-20 hours later.
(§6) GFP expression in transduced cells was measured 5-7 days post-transduction. Adherent MDM were detached by scraping in 5 mM PBS-EDTA, washed and resuspended in PBS containing 2% FBS. Cells grown in suspension were washed and resuspended in PBS containing 2% FBS. To exclude dead cells from the analysis, 10 ng/mL 7-aminoactinomycin D (7-AAD) was added.
(§7) DNA from cell cultures was extracted using a Maxwell 16 instrument (Promega) or Blood & Cell Culture DNA Micro Kit (Qiagen). To amplify the vector sequence, primers and probes complementary to the vector Rev responsive element sequence were used. Vector copy numbers and replication intermediates were normalised to genomic DNA content, which was assessed using the human TERT gene. Quantitative polymerase chain reaction (qPCR) primers and probe sequences and conditions were previously described (Santoni de Sio, F. R. et al (2006) Blood 107: 4257-65).

[3] = system: cord blood (CB)-derived CD34+ cells; type: cell-based, human
Experimental: as §4, §5, §6, §7

[4] = system: CB-derived CD34+ HSPC clonogenic progenitors; test: Colony-forming cell assay of transduced CB-derived CD34+ cells; type: cell-based, human; conditions: MOI 10; plating of vital cells in methylcellulose (FIG. 21A)
Experimental: Colony-forming cell assays were performed by plating 8×10^2 human cord blood-derived CD34^+ cells transduced with SINLV-GFP at a MOI of 10 in presence of the different compounds in a methylcellulose-based medium (Methocult GF4434, Stem Cell Technologies). 15 days later, colonies were scored by light microscopy for colony numbers and morphology. CFU-E and BFU-E were scored as erythroid colonies, while CFU-G, CFU-M, CFU-GM and CFU-GEMM as myeloid colonies.
Human differentiated cells from CFC were harvested from a single plate (pool of colonies) and mixed into a single cell suspension. Cells were then washed and resuspended in PBS containing 2% FBS. For immunostaining, cells were incubated with anti-human receptor blocking antibodies for 15 min at 4° C. and then stained for 20 min at 4° C. with anti-human CD235a and CD33 antibodies (for antibodies, see Table 1). To exclude dead cells from the analysis, cells were washed and resuspended in PBS containing 10 ng/mL 7-aminoactinomycin D (7-AAD).

[5] = system: monocyte-derived macrophages (MDM); test: SINLV-GFP lentiviral transduction of monocyte-derived macrophages; type: cell-based, human; conditions: MOI 1, 10 μM CsA or 10 μg/mL rapamycin, FACS 5 days
Experimental: as §1, §2, §3

[6] = system: Murine Lin− HSPC; test: SINLV-GFP transduction of murine Lin- HSPC; type: cell-based; conditions: MOI 1, 10 μM CsA, 10 μg/ml Rapamycin or combination (FIG. 29A)
Experimental: The percentage of GFP+ cells was evaluated by FACS 5 days post-transduction. Data are the mean±SEM of three independent experiments for HSPC and three independent transductions for CD4+ T cells. p values are for One way ANOVA with Bonferroni's multiple comparison.

[7] = system: CB-derived CD34+ cells; test: γ-retroviral SINRV-GFP transduction of CB-derived CD34+ cells; type: cell-based, human; conditions: CB-derived HSPC; MOI of 10 (FIG. 24)

In the case of `CO[C@H]1C[C@@H]2CC[C@@H](C)[C@@](O)(O2)C(=O)C(=O)N2CCCC[C@H]2C(=O)O[C@H]([C@H](C)C[C@@H]2CC[C@@H](O)[C@H](OC)C2)CC(=O)[C@H](C)/C=C(\C)[C@@H](O)[C@@H](OC)C(=O)[C@H](C)C[C@H](C)/C=C/C=C/C=C/1C` [rapamycin, Rapamycin], the “impact on transduction among the different CA mutants” value ([1]; CA mutant SINLVs MOI 1) was “did not vary”, the “impact on LV transduction efficiency (in words)” value ([1]; MOI 1, 20 μm FK506 or 10 μg/mL rapamycin) was “a similar trend was observed” and the “increase in the percentage of GFP+ cells” value [2] was 2 fold. The “increase in the percentage of GFP+ cells” value [3] was 2 fold, the “transduction efficiency in titration of Rapa” value ([3]; 10 μg/ml vs lower doses, MOI 1 (FIG. 28)) was “improved transduction efficiency over lower doses” and the “GFP+ cells with clinical grade SINLV” value ([3]; CB-derived CD34+ cells, clinical grade PGK-GFP SINLV, MOI of 10 (FIG. 25A)) was “up to 60%”. For the same molecule, the “transduction efficiency of WT and CA mutant vectors” value ([3]; CD34+ cells, SINLVs with single CA point mutations MOI 1, vs DMSO (FIG. 14B)) was “increased efficiency for all CA mutants”, the “transduction levels in all HSPC subpopulations” value ([3]; CD34− progenitors to CD34+CD133+CD90+ cells, FACS three days after transduction (FIG. 15C)) was “equally improved transduction levels” and the “number of total, CFU-GM (myeloid) and BFU-E (erythroid) colonies” value [4] was “No significant differences”. The “decrease in GFP+ cells (transduction)” value [5] was 2.8 fold, the “transduction (percentage of GFP+ cells)” value [6] was “significantly improved transduction” and the “percentage of GFP+ cells with γ-retroviral SINRV” value [7] was “neither compound was able to significantly increase”.
